Results on one compound are retold here after patent US20230218632A1, “CYCLIC SULFONAMIDE DERIVATIVES AS TRAP1 MODULATORS AND USES THEREOF” (Amathus Therapeutics, Inc., priority 2020, published 2023).

Molecules are shown by their SMILES.

The target of one assay is T1, nanoLuc TRAP1 (Homo sapiens, UniProt Q12931).
T1 construct: expressed in transfected cells; host or cells: SH-SY5Y cells, transient transfection with FuGENE HD
T1 sequence (Q12931 60-704): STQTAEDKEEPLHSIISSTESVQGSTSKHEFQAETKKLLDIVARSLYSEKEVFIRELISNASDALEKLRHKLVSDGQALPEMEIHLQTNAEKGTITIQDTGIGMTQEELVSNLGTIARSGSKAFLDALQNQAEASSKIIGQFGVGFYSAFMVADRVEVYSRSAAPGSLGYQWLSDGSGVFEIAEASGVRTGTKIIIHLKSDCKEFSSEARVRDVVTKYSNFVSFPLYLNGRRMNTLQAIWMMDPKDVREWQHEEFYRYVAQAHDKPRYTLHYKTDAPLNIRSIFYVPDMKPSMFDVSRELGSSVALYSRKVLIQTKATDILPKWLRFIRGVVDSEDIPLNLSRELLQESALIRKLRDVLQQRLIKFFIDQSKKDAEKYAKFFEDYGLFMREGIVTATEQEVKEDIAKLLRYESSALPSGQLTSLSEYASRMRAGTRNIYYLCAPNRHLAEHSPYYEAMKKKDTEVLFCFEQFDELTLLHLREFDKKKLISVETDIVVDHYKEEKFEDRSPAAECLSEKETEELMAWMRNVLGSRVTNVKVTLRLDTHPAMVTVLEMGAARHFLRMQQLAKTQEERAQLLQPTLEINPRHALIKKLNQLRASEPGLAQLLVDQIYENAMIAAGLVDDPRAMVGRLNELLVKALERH
Briefly: NanoBRET in-cell target engagement assay. It counts as binding. The settings on record: probe-385, 1 µM; live SHSY5Y cells; FIG. 2. Here is the method: In-cell target engagement assays were performed as described in Robers M.B. et al. (2019) Quantitative, Real-Time Measurements of Intracellular Target Engagement Using Energy Transfer. In: Ziegler S., Waldmann H. (eds) Systems Chemical Biology. Methods in Molecular Biology, vol 1888. Humana Press, New York, NY; Machleidt et al., ACS Chem. Biol. 2015, 10, 8, 1797-1804; or Vasta et al., Cell Chemical Biology 25, 206-214, Feb. 15, 2018; or as described herein.
Below is a protocol for transient transfection of SHSY5Y cells with NanoLuc® fusions. • 1. Cultivate SHSY5Y cells appropriately prior to assay in MEM w NEAA supplemented with 10% FBS. • 2. Remove medium from cell flask via aspiration, trypsinize, and allow cells to dissociate from the flask. • 3. Neutralize trypsin using growth medium and pellet cells via centrifugation at 200 g for 5 minutes. • 4. Aspirate medium and re-suspend cells into a single cell suspension using complete cell culture medium. • 5. Adjust the cell density to 300 K/mL in cell culture medium in a sterile, conical tube. • 6. Prepare lipid:DNA complexes as follows (this covers two assay plates, adjust numbers for more plates) • a. Prepare a 10 µg/mL solution of DNA in Opti-MEM without serum. This solution should contain the following ratios of carrier DNA and DNA encoding NanoLuc® fusion. • i. 5.0 µg/mL of Transfection Carrier DNA (pGEM) • ii. […]
(In general: In BRET a luciferase serves as donor, and the signal depends on an acceptor being close.)

For the next assay, the system named is mIMCD3 Pkd1 KO cells. Briefly: Mouse cell derived cyst assay. It counts as cell-based. Particulars: Pkd 1 KO mouse cell derived cyst forming assay; FIG. 6. Here is the method:
Mouse cell derived cyst assays were performed as described in Booij, Tijmen H et al., SLAS discovery: advancing life sciences R & D vol. 22,8 (2017): 974-984, or as described below.
Murine inner medullary collecting duct cell line (mIMCD3 Pkd1^-/- cells) • mIMCD3 Pkd1 KO cells were seeded in 384 wells plates in extracellular matrix. • 4 days after seeding, cultures were co-exposed to treatments and stimuli (2.5 µM forskolin); • After 72 h, cultures were fixed, stained for nuclei and actin cytoskeleton and imaged with 4x magnification; and • Image analysis of the 3D stack was done using Ominer™ image analysis software.

On to `O=C(Nc1ccc2c(c1)S(=O)(=O)N(c1ccc(Br)cc1)CCO2)c1cnc(-c2ccccc2)[nH]1` [Compound 1331, N-(2-(4-bromophenyl)-1,1-dioxido-3,4-dihydro-2H-benzo[b][1,4,5]oxathiazepin-8-yl)-2-phenyl-1H-imidazole-5-carboxamide], for which the “displacement of nanoBRET tracer” value at nanoLuc TRAP1 is listed as “displacing the nanoBRET tracer molecule”. Further, the cyst formation result in the assay with mIMCD3 Pkd1 KO cells is given as “preventing cyst formation”.
